Results reported in patent US20240270762A1, “PENICILLIN-BINDING PROTEIN INHIBITORS” (priority 2021, published 2024).
Values after ≈ are worked out from the molar mass of the structure shown. Read-outs that look alike come from different tables or passages of the source.

Legend:
A. baumannii CDC-0083 = test: microbe, parasite or virus in culture; type: cell-based; details: Acinetobacter baumannii, CDC0083, read-out: MIC, A. baumannii CDC-0083
A. baumannii PBP1a = molecular target: T1, A. baumannii PBP1a (Acinetobacter baumannii, UniProt A0ABX6CK30); test: Bocillin-FL competition binding via gel filtration, A. baumannii PBP1a; details: competition binding assay using Bocillin-FL via gel filtration; read-out: A. baumannii PBP1a Potency
T1 sequence (A0ABX6CK30 1-851): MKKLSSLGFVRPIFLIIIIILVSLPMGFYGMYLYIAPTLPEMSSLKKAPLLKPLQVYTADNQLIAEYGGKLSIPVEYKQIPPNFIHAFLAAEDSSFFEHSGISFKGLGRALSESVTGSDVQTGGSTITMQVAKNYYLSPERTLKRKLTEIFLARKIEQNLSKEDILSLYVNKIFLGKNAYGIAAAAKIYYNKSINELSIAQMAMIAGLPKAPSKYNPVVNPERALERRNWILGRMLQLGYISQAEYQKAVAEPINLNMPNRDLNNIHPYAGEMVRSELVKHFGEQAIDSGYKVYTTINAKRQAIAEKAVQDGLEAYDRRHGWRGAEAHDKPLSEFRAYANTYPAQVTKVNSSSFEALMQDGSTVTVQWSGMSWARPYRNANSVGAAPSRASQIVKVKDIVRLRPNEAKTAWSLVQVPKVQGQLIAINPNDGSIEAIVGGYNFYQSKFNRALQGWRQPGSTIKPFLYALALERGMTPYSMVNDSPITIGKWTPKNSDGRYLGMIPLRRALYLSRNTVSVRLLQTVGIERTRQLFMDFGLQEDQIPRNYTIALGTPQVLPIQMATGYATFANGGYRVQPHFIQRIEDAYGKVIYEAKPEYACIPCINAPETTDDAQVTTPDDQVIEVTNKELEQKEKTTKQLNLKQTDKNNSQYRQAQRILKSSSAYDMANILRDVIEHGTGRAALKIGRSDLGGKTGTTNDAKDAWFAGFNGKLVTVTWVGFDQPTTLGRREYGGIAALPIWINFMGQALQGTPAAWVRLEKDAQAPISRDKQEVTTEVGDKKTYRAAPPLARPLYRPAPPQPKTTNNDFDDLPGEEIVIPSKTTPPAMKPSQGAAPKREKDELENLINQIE
Summary of the method: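 Competitive equilibrium binding; reporter Bocillin-FL. PBP + inhibitor (titration) pre-incubated → Bocillin-FL, 15 min → gel filtration → fluorescence. EC50 from Hill fit of fraction bound vs [inhibitor].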

N. gonorrhoeae CDC-0197 = test: Liquid broth MIC in Fastidious broth; details: Neisseria gonorrhoeae
P. aeruginosa ATCC 27853 = test: microbe, parasite or virus in culture; type: cell-based; details: Pseudomonas aeruginosa, ATCC27853, read-out: Minimum inhibitory concentration, P. aeruginosa ATCC 27853
P. aeruginosa ATCC 35151 = test: microbe, parasite or virus in culture; type: cell-based; details: Pseudomonas aeruginosa, ATCC35151, read-out: Minimum inhibitory concentration, P. aeruginosa ATCC 35151
A. baumannii CDC-0045 = test: microbe, parasite or virus in culture; type: cell-based; details: Acinetobacter baumannii, CDC0045, read-out: MIC, A. baumannii CDC-0045
[1] = tested on: P. aeruginosa (ΔmexAB-oprM); test: Broth microdilution MIC in iron-depleted CAMHB (IDM); type: cell-based; details: Pseudomonas aeruginosa; iron-depleted CAMHB (IDM); […]; read-out: Minimum inhibitory concentration, P. aeruginosa ΔmexAB-oprM
N. gonorrhoeae MS11 = test: Liquid broth MIC in Fastidious broth; details: Neisseria gonorrhoeae
Protocol: Additional antibacterial testing of the series was performed in 8 reference strains of N. gonorrhoeae (ATCC 49226, FA1090, MS 11, WHO G, WHO L, WHO M, WHO K, WHO X, WHO Z, WHO Q, CDC-0197). ATCC 49226, FA1090, MS11, WHO G, WHO L, and WHO M produce wild type or wild-type like PBP2. WHO K, WHO X, WHO Z, WHO Q, and CDC-0197 produce mosaic PBP2. Liquid broth-based assays were used for antibacterial testing of PBP inhibitors in Neisseria gonorrhoeae. Briefly, cryo-preserved bacterial cultures of clinical strains were streaked for isolation on Chocolate Agar (72 g/L (2×) GC Agar Base (BD #228950) and 2% (2×) Hemoglobin was autoclaved at 121° C. for 20 minutes to sterilize. Once cooled to ˜50° C. the 2×GC Agar Base and 2× Hemoglobin solutions are combined and 1% IsoVitaleX Enrichment (BD #211876) was added to the solution). Strains were incubated at 36° C. and 5% CO2 to allow growth of colonies, 24 hours before inoculum preparation. 2-fold serial dilutions of test compounds were conducted in a 96 well plate with a final volume of 75 μL per well at 2-fold the final desired concentration in Fastidious broth (Remel #R07664). For preparation of assay inoculum, a direct suspension was prepared by aseptically swabbing 10-15 colonies from agar plates into culture tubes containing 2 mL of fresh sterile saline. After the dilution plates were set up, direct suspensions were then diluted in a cuvette containing sterile saline and the optical density was measured at 600 nm. Inocula were diluted such that 75 μL of this culture in Fastidious broth results in a starting bacterial concentration of 5×10^5 CFU/mL when added to the dilution plates. The plates were incubated for ˜24 hours at 36° C. and 5% CO2.

P. aeruginosa CDC-0110 = test: microbe, parasite or virus in culture; type: cell-based; details: Pseudomonas aeruginosa, CDC0110, read-out: Minimum inhibitory concentration, P. aeruginosa CDC-0110
A. baumannii ATCC 19606 = test: microbe, parasite or virus in culture; type: cell-based; details: Acinetobacter baumannii, ATCC19606, read-out: MIC, A. baumannii ATCC 19606
P. aeruginosa CDC-0054 = test: microbe, parasite or virus in culture; type: cell-based; details: Pseudomonas aeruginosa, CDC0054, read-out: Minimum inhibitory concentration, P. aeruginosa CDC-0054
[2] = tested on: B. thailandensis ATCC 700388; test: microbe, parasite or virus in culture; type: cell-based; details: Burkholderia thailandensis, ATCC700388, read-out: Minimum inhibitory concentration (MIC), B. thailandensis ATCC 700388
[3] = tested on: B. humptydooensis ATCC BAA-2767; test: microbe, parasite or virus in culture; type: cell-based; details: Burkholderia humptydooensis, ATCCBAA2767, read-out: Minimum inhibitory concentration (MIC), B. humptydooensis ATCC BAA-2767
[4] = CDC0197, read-out: Minimum Inhibitory Concentration, CDC-0197
[5] = MS11, read-out: Minimum Inhibitory Concentration, MS11
[6] = CDC0197, read-out: Minimum Inhibitory Concentration (MIC), N. gonorrhoeae CDC-0197
[7] = MS11, read-out: Minimum Inhibitory Concentration (MIC), N. gonorrhoeae MS11

Compound | MIC (A. baumannii CDC-0083) | EC50 (A. baumannii PBP1a) | MIC (N. gonorrhoeae CDC-0197; [4]) | MIC (P. aeruginosa ATCC 27853) | MIC (P. aeruginosa ATCC 35151) | MIC (A. baumannii CDC-0045) | MIC [1] | MIC (N. gonorrhoeae MS11; [5]) | MIC (P. aeruginosa CDC-0110) | MIC (A. baumannii ATCC 19606) | MIC (P. aeruginosa CDC-0054) | MIC [2] | MIC [3] | MIC (N. gonorrhoeae CDC-0197; [6]) | MIC (N. gonorrhoeae MS11; [7])
O=C(NCCCS(=O)(=O)N1CCN(C(=O)NC(C(=O)N[C@H]2Cc3ccc(F)c(C(=O)O)c3OB2O)c2cc(F)c(O)c(O)c2Cl)C1=O)c1nccs1 (stereo partly drawn) [Example 274, (3R)-3-(2-(2-chloro-5-fluoro-3,4-dihydroxyphenyl)-2-(2-oxo-3-((3-(thiazole-2-carboxamido)propyl)sulfonyl)imidazolidine-1-carboxamido)acetamido)-7-fluoro-2-hydroxy-3,4-dihydro-2H-benzo[e][1,2]oxaborinine-8-carboxylic acid] | < 1 µg/mL | < 10 µM | 16 to 32 µg/mL (≈ 20.3 to 40.7 µM) | 2 to 4 µg/mL (≈ 2.54 to 5.08 µM) | < 1 µg/mL | < 1 µg/mL | < 1 µg/mL | 16 to 32 µg/mL (≈ 20.3 to 40.7 µM) | 2 to 4 µg/mL (≈ 2.54 to 5.08 µM) | < 1 µg/mL | 2 to 4 µg/mL (≈ 2.54 to 5.08 µM) | > 128 µg/mL | 2 to 4 µg/mL (≈ 2.54 to 5.08 µM) |  | 
O=C(NCCCS(=O)(=O)N1CCN(C(=O)NC(C(=O)N[C@H]2Cc3ccc(F)c(C(=O)O)c3OB2O)c2cc(F)c(O)c(O)c2Cl)C1=O)Nc1ccc(O)cc1 (stereo partly drawn) [Example 276, (3R)-3-(2-(2-chloro-5-fluoro-3,4-dihydroxyphenyl)-2-(3-((3-(3-(4-hydroxyphenyl)ureido)propyl)sulfonyl)-2-oxoimidazolidine-1-carboxamido)acetamido)-7-fluoro-2-hydroxy-3,4-dihydro-2H-benzo[e][1,2]oxaborinine-8-carboxylic acid] | < 1 µg/mL | < 10 µM | 16 to 32 µg/mL (≈ 19.7 to 39.5 µM) | 2 to 4 µg/mL (≈ 2.47 to 4.93 µM) | < 1 µg/mL | 2 to 4 µg/mL (≈ 2.47 to 4.93 µM) | < 1 µg/mL | 16 to 32 µg/mL (≈ 19.7 to 39.5 µM) | 2 to 4 µg/mL (≈ 2.47 to 4.93 µM) | < 1 µg/mL | 8 to 16 µg/mL (≈ 9.87 to 19.7 µM) | > 128 µg/mL | 32 to 64 µg/mL (≈ 39.5 to 78.9 µM) |  | 
CN(CCN1CCN(C(=O)N[C@@H](C(=O)N[C@H]2Cc3ccc(F)c(C(=O)O)c3OB2O)c2cc(F)c(O)c(O)c2Cl)C(=O)C1=O)Cc1nccs1 [Example 200, (R)-3-((R)-2-(2-chloro-5-fluoro-3,4-dihydroxyphenyl)-2-(4-(2-(methyl(thiazol-2-ylmethyl)amino)ethyl)-2,3-dioxopiperazine-1-carboxamido)acetamido)-7-fluoro-2-hydroxy-3,4-dihydro-2H-benzo[e][1,2]oxaborinine-8-carboxylic acid] | < 1 µg/mL |  |  | < 1 µg/mL | < 1 µg/mL | < 1 µg/mL | < 1 µg/mL |  | < 1 µg/mL | < 1 µg/mL | < 1 µg/mL | < 1 µg/mL | < 1 µg/mL | > 64 µg/mL | 16 to 32 µg/mL (≈ 21.7 to 43.4 µM)
O=C(CN1CCN(C(=O)NC(C(=O)N[C@H]2Cc3ccc(F)c(C(=O)O)c3OB2O)c2cc(F)c(O)c(O)c2Cl)C(=O)C1=O)Nc1cccc(O)c1 (stereo partly drawn) [Example 231, (3R)-3-(2-(2-chloro-5-fluoro-3,4-dihydroxyphenyl)-2-(4-(2-((3-hydroxyphenyl)amino)-2-oxoethyl)-2,3-dioxopiperazine-1-carboxamido)acetamido)-7-fluoro-2-hydroxy-3,4-dihydro-2H-benzo[e][1,2]oxaborinine-8-carboxylic acid] | > 128 µg/mL |  |  | < 1 µg/mL | < 1 µg/mL | 2 to 4 µg/mL (≈ 2.73 to 5.47 µM) | < 1 µg/mL |  | < 1 µg/mL | < 1 µg/mL | 2 to 4 µg/mL (≈ 2.73 to 5.47 µM) | 2 to 4 µg/mL (≈ 2.73 to 5.47 µM) | 8 to 16 µg/mL (≈ 10.9 to 21.9 µM) | 16 to 32 µg/mL (≈ 21.9 to 43.7 µM) | 16 to 32 µg/mL (≈ 21.9 to 43.7 µM)
